Test results reported in ChEMBL document CHEMBL1629591, “Codetection of blaOXA-23-like gene (blaOXA-133) and blaOXA-58 in Acinetobacter radioresistens: report from the SENTRY antimicrobial surveillance program” (2009).
Converted amounts (≈) assume the structure as drawn.

The molecules below were run on Acinetobacter radioresistens (assay: Antimicrobial activity against plasmid encoded beta-lactamase OXA-58 deficient Acinetobacter radioresistens by CLSI method in presence of beta-lactamase inhibitor Sulbactam).
Type: functional

Row | Molecule | MIC
1 | CC1(C)S[C@@H]2[C@H](NC(=O)[C@H](N)c3ccccc3)C(=O)N2[C@H]1C(=O)O [AMPICILLIN] | 1 µg/mL

What follows are molecules tested on Acinetobacter radioresistens (assay: Antimicrobial activity against plasmid encoded beta-lactamase OXA-58 deficient Acinetobacter radioresistens by CLSI method in presence of beta-lactamase inhibitor clavulanate).
Type: functional

Row | Molecule | MIC
2 | CC1(C)S[C@@H]2[C@H](NC(=O)[C@H](C(=O)O)c3ccsc3)C(=O)N2[C@H]1C(=O)O [TICARCILLIN] | 4 µg/mL
3 | CC1(C)S[C@@H]2[C@H](NC(=O)[C@H](N)c3ccc(O)cc3)C(=O)N2[C@H]1C(=O)O [AMOXICILLIN] | 2 µg/mL

These molecules were tested on Acinetobacter radioresistens (assay: Antimicrobial activity against Acinetobacter radioresistens 251-39C expressing beta-lactamase OXA-133 by CLSI method).
Type: functional

Row | Molecule | MIC
4 | POLYMYXIN B | < 0.5 µg/mL
5 | C[C@@H](O)[C@H]1C(=O)N2C(C(=O)O)=C(S[C@@H]3CN[C@H](C(=O)N(C)C)C3)[C@H](C)[C@H]12 [MEROPENEM] | 1 µg/mL (≈ 2.61 µM)
6 | C[C@@H](O)[C@H]1C(=O)N2C(C(=O)O)=C(SCCNC=N)C[C@H]12 [IMIPENEM ANHYDROUS] | 8 µg/mL (≈ 26.7 µM)
7 | CN(C)[C@@H]1C(O)=C(C(N)=O)C(=O)[C@@]2(O)C(O)=C3C(=O)c4c(O)cccc4[C@@](C)(O)[C@H]3C[C@@H]12 [TETRACYCLINE] | ≤ 2 µg/mL
8 | C[C@@H](O)[C@H]1C(=O)N2C(C(=O)O)=C(S[C@@H]3CN[C@H](C(=O)Nc4cccc(C(=O)O)c4)C3)[C@H](C)[C@H]12 | 4 µg/mL (≈ 8.41 µM)
9 | NC[C@H]1O[C@H](O[C@H]2[C@H](O)[C@@H](O[C@H]3O[C@H](CO)[C@@H](O)[C@H](N)[C@H]3O)[C@H](N)C[C@@H]2N)[C@H](N)C[C@@H]1O [TOBRAMYCIN] | 2 µg/mL (≈ 4.28 µM)
10 | CO/N=C(\C(=O)N[C@@H]1C(=O)N2C(C(=O)O)=C(CSc3nc(=O)c(O)nn3C)CS[C@H]12)c1csc(N)n1 [CEFTRIAXONE] | 4 µg/mL (≈ 7.21 µM)
11 | CO[C@@]1(NC(=O)Cc2cccs2)C(=O)N2C(C(=O)O)=C(COC(N)=O)CS[C@@H]21 [CEFOXITIN] | 8 µg/mL (≈ 18.7 µM)
12 | CC(C)(O/N=C(\C(=O)N[C@@H]1C(=O)N2C(C(=O)[O-])=C(C[n+]3ccccc3)CS[C@H]12)c1csc(N)n1)C(=O)O [CEFTAZIDIME] | 0.5 µg/mL (≈ 0.915 µM)
13 | NCC[C@H](O)C(=O)N[C@@H]1C[C@H](N)[C@@H](O[C@H]2O[C@H](CN)[C@@H](O)[C@H](O)[C@H]2O)[C@H](O)[C@H]1O[C@H]1O[C@H](CO)[C@@H](O)[C@H](N)[C@H]1O [AMIKACIN] | 0.5 µg/mL (≈ 0.854 µM)

These molecules were tested on Acinetobacter radioresistens (assay: Antimicrobial activity against Acinetobacter radioresistens 251-39C expressing beta-lactamase OXA-133 by CLSI method in presence of beta-lactamase inhibitor clavulanate).
Type: functional

Row | Molecule | MIC
14 | CC1(C)S[C@@H]2[C@H](NC(=O)[C@H](C(=O)O)c3ccsc3)C(=O)N2[C@H]1C(=O)O [TICARCILLIN] | > 256 µg/mL
15 | CC1(C)S[C@@H]2[C@H](NC(=O)[C@H](N)c3ccc(O)cc3)C(=O)N2[C@H]1C(=O)O [AMOXICILLIN] | 32 µg/mL

Each molecule was assayed on Acinetobacter radioresistens (assay: Antimicrobial activity against Acinetobacter radioresistens 251-39C expressing beta-lactamase OXA-133 by CLSI method in presence of beta-lactamase inhibitor Tazobactam).
Type: functional

Row | Molecule | MIC
16 | CCN1CCN(C(=O)N[C@@H](C(=O)N[C@@H]2C(=O)N3[C@@H]2SC(C)(C)[C@@H]3C(=O)O)c2ccccc2)C(=O)C1=O [PIPERACILLIN] | 64 µg/mL

What follows are molecules tested on Acinetobacter radioresistens (assay: Antimicrobial activity against Acinetobacter radioresistens 251-39C expressing beta-lactamase OXA-133 by CLSI method in presence of beta-lactamase inhibitor Sulbactam).
Type: functional

Row | Molecule | MIC
17 | CC1(C)S[C@@H]2[C@H](NC(=O)[C@H](N)c3ccccc3)C(=O)N2[C@H]1C(=O)O [AMPICILLIN] | 1 µg/mL

The molecules below were run on Acinetobacter radioresistens (assay: Antimicrobial activity against plasmid encoded beta-lactamase OXA-58 deficient Acinetobacter radioresistens by CLSI method in presence of beta-lactamase inhibitor Tazobactam).
Type: functional

Row | Molecule | MIC
18 | CCN1CCN(C(=O)N[C@@H](C(=O)N[C@@H]2C(=O)N3[C@@H]2SC(C)(C)[C@@H]3C(=O)O)c2ccccc2)C(=O)C1=O [PIPERACILLIN] | 1 µg/mL

These molecules were tested on Acinetobacter radioresistens (assay: Antimicrobial activity against plasmid encoded beta-lactamase OXA-58 deficient Acinetobacter radioresistens by CLSI method).
Type: functional

Row | Molecule | MIC
19 | POLYMYXIN B | < 0.5 µg/mL
20 | C[C@@H](O)[C@H]1C(=O)N2C(C(=O)O)=C(S[C@@H]3CN[C@H](C(=O)N(C)C)C3)[C@H](C)[C@H]12 [MEROPENEM] | 0.25 µg/mL (≈ 0.652 µM)
21 | C[C@@H](O)[C@H]1C(=O)N2C(C(=O)O)=C(SCCNC=N)C[C@H]12 [IMIPENEM ANHYDROUS] | 0.25 µg/mL (≈ 0.835 µM)
22 | CN(C)[C@@H]1C(O)=C(C(N)=O)C(=O)[C@@]2(O)C(O)=C3C(=O)c4c(O)cccc4[C@@](C)(O)[C@H]3C[C@@H]12 [TETRACYCLINE] | ≤ 2 µg/mL
23 | C[C@@H](O)[C@H]1C(=O)N2C(C(=O)O)=C(S[C@@H]3CN[C@H](C(=O)Nc4cccc(C(=O)O)c4)C3)[C@H](C)[C@H]12 | 1 µg/mL (≈ 2.1 µM)
24 | NC[C@H]1O[C@H](O[C@H]2[C@H](O)[C@@H](O[C@H]3O[C@H](CO)[C@@H](O)[C@H](N)[C@H]3O)[C@H](N)C[C@@H]2N)[C@H](N)C[C@@H]1O [TOBRAMYCIN] | 2 µg/mL (≈ 4.28 µM)
25 | CO/N=C(\C(=O)N[C@@H]1C(=O)N2C(C(=O)O)=C(CSc3nc(=O)c(O)nn3C)CS[C@H]12)c1csc(N)n1 [CEFTRIAXONE] | 2 µg/mL (≈ 3.61 µM)
26 | CO[C@@]1(NC(=O)Cc2cccs2)C(=O)N2C(C(=O)O)=C(COC(N)=O)CS[C@@H]21 [CEFOXITIN] | 8 µg/mL (≈ 18.7 µM)
27 | CC(C)(O/N=C(\C(=O)N[C@@H]1C(=O)N2C(C(=O)[O-])=C(C[n+]3ccccc3)CS[C@H]12)c1csc(N)n1)C(=O)O [CEFTAZIDIME] | 0.5 µg/mL (≈ 0.915 µM)
28 | NCC[C@H](O)C(=O)N[C@@H]1C[C@H](N)[C@@H](O[C@H]2O[C@H](CN)[C@@H](O)[C@H](O)[C@H]2O)[C@H](O)[C@H]1O[C@H]1O[C@H](CO)[C@@H](O)[C@H](N)[C@H]1O [AMIKACIN] | 0.5 µg/mL (≈ 0.854 µM)
